# Results taken from ChEMBL document CHEMBL1135386, “Development of potent and selective dipeptidyl peptidase II inhibitors” (Bioorg Med Chem Lett, 2002).
# Assays:
# Dipeptidyl peptidase 4 [1] = biological target: T1, Dipeptidyl peptidase 4 (Homo sapiens, UniProt P27487)
# Dipeptidyl peptidase 2 [2] = biological target: T2, Dipeptidyl peptidase 2 (Homo sapiens, UniProt Q9UHL4)
# Dipeptidyl peptidase 4 [3] = biological target: T1, Dipeptidyl peptidase 4; remark: listed apart in the source
# [4] = biological target: Dipeptidyl peptidase II and dipeptidyl peptidase IV (DPP2 and DPP4) (Homo sapiens) (UniProt P27487+Q9UHL4); assay: Selectivity index against Dipeptidyl Peptidase IV and Dipeptidyl Peptidase II inhibitory activities; assay type: protein assay
# Dipeptidyl peptidase 2 [5] = biological target: T2, Dipeptidyl peptidase 2; assay: Inhibitory activity against Dipeptidyl Peptidase II
# T1 sequence (P27487 whole entry): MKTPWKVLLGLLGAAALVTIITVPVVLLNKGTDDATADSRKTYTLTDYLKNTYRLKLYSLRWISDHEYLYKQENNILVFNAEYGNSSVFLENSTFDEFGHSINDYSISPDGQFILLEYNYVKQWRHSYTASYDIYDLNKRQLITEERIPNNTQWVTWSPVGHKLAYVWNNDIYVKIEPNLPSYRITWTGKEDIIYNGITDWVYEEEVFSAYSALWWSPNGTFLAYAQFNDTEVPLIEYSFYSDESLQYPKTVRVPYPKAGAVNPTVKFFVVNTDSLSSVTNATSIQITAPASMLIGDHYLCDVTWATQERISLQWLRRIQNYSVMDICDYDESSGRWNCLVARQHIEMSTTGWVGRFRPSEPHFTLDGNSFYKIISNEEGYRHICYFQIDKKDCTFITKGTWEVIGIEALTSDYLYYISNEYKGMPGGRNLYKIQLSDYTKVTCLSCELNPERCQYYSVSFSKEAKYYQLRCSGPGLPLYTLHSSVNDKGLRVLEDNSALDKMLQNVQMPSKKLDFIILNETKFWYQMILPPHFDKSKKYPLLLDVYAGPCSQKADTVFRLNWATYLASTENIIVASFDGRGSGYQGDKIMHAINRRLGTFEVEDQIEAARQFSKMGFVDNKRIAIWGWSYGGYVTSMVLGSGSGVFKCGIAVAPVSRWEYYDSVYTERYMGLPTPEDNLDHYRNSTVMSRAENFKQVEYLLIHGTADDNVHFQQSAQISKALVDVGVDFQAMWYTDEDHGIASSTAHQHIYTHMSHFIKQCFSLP
IC50 (Dipeptidyl peptidase 4 [1]) [µM],SMILES,further results
188,NC(=O)CC(N)C(=O)N1CCCC1 (configuration not stated),
,C[C@H](N)C(=S)N1CCCC1,Ki (Dipeptidyl peptidase 2 [2]): 1.43 µM; Ki (Dipeptidyl peptidase 4 [3]): 47.6 µM
135,NCCCCC(NC(=O)OCc1ccccc1)C(=O)N1CCCCC1 (configuration not stated),SI [4]: 64
,C[C@H](N)C(=O)N1CCC[C@H]1C#N,IC50 (Dipeptidyl peptidase 2 [5]): 110 µM
41,C[C@H](N)C(=O)N1CCCC1,
122,N[C@@H](CC(=O)O)C(=O)N1CCCC1,
> 500,S=C(C1CCCN1)N1CCCC1 (configuration not stated),
> 1000,NCC(=O)N1CCCC1,
217,N[C@@H](CC1CCCCC1)C(=O)N1CCCCC1,
190,NC(CO)C(=O)N1CCCC1 (configuration not stated),
> 1000,NC[C@H](N)C(=O)N1CCCCC1,
14,NC(Cc1ccc(O)cc1)C(=O)N1CCCC1 (configuration not stated),
> 500,NCCCC(N)C(=O)N1CCCCC1 (configuration not stated),SI [4]: > 1110
23.2,NC(Cc1c[nH]cn1)C(=O)N1CCCC1 (configuration not stated),
213,NC(Cc1c[nH]cn1)C(=O)N1CCCCC1 (configuration not stated),
21,NC(Cc1ccccc1)C(=O)N1CCCC1 (configuration not stated),
247,NCCCCC(N)C(=O)N1CCCCC1 (configuration not stated),SI [4]: 154
67,CCC(C)C(N)C(=O)N1CCCCC1 (configuration not stated),
39,NCCCCC(N)C(=O)N1CCCC1 (configuration not stated),
,C[C@H](N)C(=S)N1CCSC1,Ki (Dipeptidyl peptidase 2 [2]): 0.277 µM; Ki (Dipeptidyl peptidase 4 [3]): 7.88 µM

SMILES,IC50 (Dipeptidyl peptidase 4 [1]) [µM],further results
NCC[C@H](N)C(=O)N1CCCCC1,> 1000,SI [4]: > 7590
